# From publication PMC8148468, “Shikimic acid protects skin cells from UV-induced senescence through activation of the NAD+-dependent deacetylase SIRT1” (Aging (Albany NY), 2021)
# Legend:
# [1] = system: primary human dermal fibroblasts (HDFs); details: female, human
# Description: In our efforts to identify novel factors that could prevent skin cell senescence, we developed a screening process to identify new modulators of the protective role of sirtuins in UV-induced senescence. For this purpose, we established a culture of primary human dermal fibroblasts (HDFs). […] Our first step in the screening was to establish the optimal concentrations of these compounds in the case of HDFs. […] Once established, we took these parameters into account to decide the specific working range of concentrations for each compound.
# Human dermal fibroblasts (HDFs) (Promocell, Germany) from 40-year old Caucasian women were used as the in vitro model for compound viability and efficacy screening. Cells were cultured in Dulbecco's modified eagle medium (DMEM) low glucose (Biowest, France) supplemented with 10% fetal bovine serum (FBS) (Capricorn Scientific, Germany) and 10 U/mL penicillin/streptomycin (Biowest, France) in a humidified incubator at 37° C and 5% CO2. For cell passage, cells at 80% confluence were trypsinized and plated at 60% confluence. Cells between passage 13 and 18 were used for the assays. For the SIRT1 in vitro assay, HEK293 cells (ATCC, USA), used to transfect and immunoprecipitate SIRT1 protein, were grown in DMEM high glucose (Thermo Fisher Scientific, USA), supplemented with 10% FBS in a humidified incubator at 37° C and 5% CO2. The following experiments were all performed in triplicate.
# (§1) The protocol for senescence induction using UVB irradiation is described in the Supplementary Methods. SA-β-Gal staining, WST-1, sulforhodamine B (SRB) and trypan blue assays were performed as previously described. For the siRNA experiments, the protocol for senescence induction using UVB irradiation was the same as in the Supplementary Methods. Specific siRNA (Horizon discovery, UK) for SIRT1, SIRT2, SIRT6, BiP or scramble siRNA were incubated for 6 hours before each irradiation step.
# [2] = system: UVB-irradiated human dermal fibroblasts (HDFs); assay: UVB-induced senescence assay: SA-β-Gal staining; type: cell-based; details: UVB-irradiated HDF
# Procedure: In the second approach, we established a method for inducing senescence in these cells with 2 cycles of UVB irradiation 72h apart (Figure 2A). The use of UVA to induce senescence was discarded due to its considerably longer time requirement, being unsuitable to screen 30 compounds within a reasonable period. Cells were treated with these compounds throughout the duration of the assay and cellular senescence was monitored with two markers: accumulation of SA-β-galactosidase (SA-β-Gal) activity, and the decrease in expression of HAS2 (hyaluronic acid synthase 2), a previously reported marker of skin senescence.
# Figure 2 (A) Schematic representation of the protocol for senescence induction using UVB irradiation. Cells were treated -/+ the compounds from day 1 to 7 after seeding, irradiated with UVB on days 2 and 5 and harvested for analysis on day 7. […] (C) Phase-contrast (left column) and bright field (right column) microscope images of SA-β-Gal staining showing non-irradiated cells, UVB-irradiated cells non-treated and treated with Gallic acid or Shikimic acid at the indicated concentrations. (D) Percentage of SA-β-Gal positive cells and (E) Relative HAS2 mRNA levels in non-irradiated cells, UVB-irradiated cells and UVB-irradiated cells treated with Gallic acid or Shikimic acid at the indicated concentrations. Student T-test, *p<0.05, **p<0.01, ***p<0.001.
# as §1
# Senescence induction by UVB irradiation For the non-irradiation control conditions, HDF were […]
# After 24h, culture medium was removed and well plates. After 24h, culture medium was removed replaced by fresh cell culture medium containing the and replaced with fresh cell culture medium containing compounds at different concentrations. After 24h, the compounds at different concentrations. […]
# cell culture medium was removed, and cells were cells/plate in fresh cell culture medium containing the irradiated at 25 mJ/cm2 of UVB light (312 nm) in a Bio- compound in 6-well plates. After 3 days, cells were […]
# amount of PBS. PBS was then removed and fresh cell fresh cell culture medium containing the compound in culture medium with the compound was added to each 6-well plates. After 2 days, cells were processed well. After 3 days, cells were irradiated again under the according to the qPCR, β-Gal staining, apoptosis, cell same conditions. After 2 days, cells were processed cycle or immunofluorescence protocols. according to the qPCR, β-Gal staining, apoptosis, cell cycle or immunofluorescence protocols.
# UVB-irradiated HDF cells = assay: Apoptosis detection, Annexin V-FITC/PI flow cytometry; type: cell-based, human; details: UVB-irradiated cells exposed to SA 10, 25, 50 mM
# Procedure: Figure 4 (A) SRB and Trypan blue cell viability assays performed in cells treated with or without Shikimic acid (5, 10, 25 and 50 mM) for 24h. (B) Apoptosis detection using the Annexin V-FITC/PI double staining followed by flow cytometry in non-irradiated and non-treated cells, irradiated and non-treated cells and irradiated cells treated with Shikimic acid (10, 25 and 50 mM). (C) Representation and statistical analysis of the percentage of apoptotic cells in each of the conditions analyzed. (D) Cell cycle analysis using PI staining followed by flow cytometry. (E) Relative p16^INK4a mRNA levels monitored by qPCR in the indicated conditions. Student T-test, *p<0.05. (F) Immunofluorescence of γH2AX in non-irradiated and non-treated cells, irradiated and non-treated cells and irradiated cells treated with Shikimic acid (10, 25 and 50 mM). […]
# Fluorescence-activated cell sorting (FACS) analyses of the cell cycle and apoptosis were carried out using, respectively, a Propidium Iodide Flow Cytometry Kit (Abcam, UK), and an Annexin V-FITC Apoptosis Staining/Detection Kit (Abcam, UK), following the manufacturer’s instructions. […]
smiles,measurement,setting,value
O=C(O)C1=C[C@@H](O)[C@@H](O)[C@H](O)C1 [Shikimic acid],LD50,[1],58.44 mM
same,Max. non-cyt. doses,[1],25 mM
same,SA-β-Gal accumulation/staining,[2],significant decrease in SA-β-Gal accumulation
same,prevention of UV-induced cellular senescence,[2]; SA-β-Gal and HAS2 markers,prevented the development of senescence
same,"early apoptosis (annexin V, text)",UVB-irradiated HDF cells,very mild and mostly insignificant levels of early apoptosis
